Columns and labels:
guinea pigs = details: cited from earlier work
[1] = system: hepatic mRNA of ER stress, inflammation and lipid metabolism genes; test: Hepatic mRNA quantification (qPCR, XBP-1 splicing) in treated mice; assay type: in vivo; details: liver
Excerpt: FIGS. 6a and 6b. Liver samples from FIG. 16 were used to isolate total mRNA and to quantify expression of different candidate genes. Statistical analyses were as described in FIGS. 16-17.
FIGS. 9a and 9b. C57B/6J mice were fed a western diet for 8 weeks and then treated with MTP inhibitor and other indicated compounds for 8 days as described in FIG. 16. Liver samples were used to isolate mRNA and to quantify mRNA levels with different candidate genes. Stars on MTPi group represent comparison with the control group.
FIG. 16. Age matched wildtype C57/BL6J animals chow fed animals were treated with DMSO (control) or MTP inhibitor (MTPi) for one week. Age matched wildtype C57/BL6J were fed WD for one month and were administered MTPi, Lovastatin, (Lova), Pioglitazone (Pio) or 4-phenylbutyric acid (PBA) every day for one week. All drugs were administered by oral gavage. Animals were sacrificed on day 7 and livers were harvested. mRNA was extracted and subjected to qPCR analysis. * represent comparison DMSO control; # represent comparisons to WD control; @ represent comparisons to WD MTP inhibitor treated animals.
mRNA quantifications and primers used: Total RNA from tissues and cells were isolated using TriZol™ (Invitrogen). The purity and integrity of RNA were assessed by the A260/A280 ratio and 1% agarose gel electrophoresis, respectively. Only the RNAs with ratios more than 1.7 were used for cDNA synthesis. The first strand cDNA was synthesized using Omniscript RT (Qiagen) kit. Briefly, 2 μg of total RNA, 1 μM random primers (Invitrogen), 0.5 mM dNTP solution, and 0.5 U/μl Omniscript Reverse Transcriptase were incubated at 37° C. for 1 h in 20 μl of RT buffer and the reaction was terminated by incubating at 95° C. for 5 minutes. Each reaction of quantitative RT-PCR was carried out in a volume of 20 μl consisting of 5 μl cDNA sample (1:100 dilution of the first strand cDNA sample) and 15 μl of PCR master mix solution containing 1×PCR reaction buffer, 6 mM MgCl2, 200 nM primer pair, 0.025 U/μl HotStar Gold™ DNA polymerase, 200 μM dNTP solution, and 0.3 μl SYBR Green I solution (gPCR™ Core Kit for SYBR Green I, Eurogentec). The PCR was carried out by incubating the reaction mixture first for 10 minute at 95° C. followed by 40 cycles of 15 sec incubations at 95° C. and 1 min at 60° C. in the ABI 7000 SDS PCR machine. The data were analyzed using ΔΔCT method according to manufacturer's instruction and presented as arbitrary units. The primers used in this study were designed with the PrimerExpress 3.0 software (Applied Biosystems, CA) and are presented as Table 1.

[2] = system: C57Bl/6J mice fed either a chow or western diet; test: MTP inhibitor BMS-212122-01 with or without lovastatin, pioglitazone or PBA in chow or western diet fed C57Bl/6J mice; assay type: in vivo; details: WD one month
Procedure: FIG. 13. Age matched wildtype C57/Bl6J animals chow fed animals were treated with DMSO (control) or MTP inhibitor (MTPi) for one week. […] All drugs were administered by oral gavage. Animals were sacrificed on day 7 and plasma and livers were harvested and analyzed. * represent comparison to DMSO control; # represent comparisons to WD control; @ represent comparisons to WD MTP inhibitor treatment.
FIG. 18. Age matched wildtype C57/BL6J were fed WD for one month and were administered MTPi, or 4-phenylbutyric acid (PBA) everyday for one week. All drugs were administered by oral gavage. Animals were sacrificed on day 7 and livers were harvested. * represent comparison DMSO control; # represent comparisons to HF MTP inhibitor treated animals.
(§1) C57BL/6J Black 6 mice (stock number 000664) were obtained from Jackson Laboratory and used for chow fed and western diet fed experiments. MTP inhibitor (BMS […]) (1 mg/kg/day), Lovastatin, Pioglitazone (Toronto Research Chemicals P471000) (25 mg/kg/day) and 4-phenylbutyric acid (Calbiochem 820986) (1 g/kg/day) were administered by oral gavage. Chow fed animals were treated for one week with either DMSO or MTP inhibitor. Western diet fed animals were fed DMSO, MTP inhibitor, Pioglitazone, MTP inhibitor+Pioglitazone, Lovastatin, MTP inhibitor+Lovastatin, 4-phenylbutyric acid, and MTP inhibitor+4-phenylbutyric acid. Chow fed animals were also injected with either PBS or Tunicamycin and animals were sacrificed at 4, 8, 12 and 24 hours.
All animals were kept in 07:00-19:00 h lighting schedule. […] Food was withdrawn 16 h before the sacrifice of the mice. On the day of the experiment, mice were anesthetized and blood was collected from the heart. Liver was collected, washed in ice-cold PBS, cut into small pieces and used for lipid extraction, histological staining, to measure different protein activities/quantities and for mRNA analysis. Lipids were extracted from the tissue homogenates following the Bligh and Dyer method. Triglyceride (Infinity TM Triglyceride, TR22421) and total cholesterol (Infinity TM Cholesterol, TR13421) levels in the tissues were determined using commercial kits (Thermo Scientific). Free cholesterol and free fatty acid levels were measured using kits from Wako Chemicals (Germany). Esterified cholesterol was calculated by subtracting the free cholesterol from the total cholesterol.
We next studied the effects of chemical inhibition of MTP in C57Bl/6J mice fed either a chow or western diet (WD) for 5 weeks. Chow fed animals were orally gavaged with either DMSO or MTP inhibitor BMS-212122-01 (MTPi; 1 mg/kg/day) for one week. WD fed animals were treated with DMSO, MTP inhibitor with or without lovastatin (50 mg/kg/day) or pioglitazone (25 mg/kg/day) daily by oral gavage for one week.

[3] = in vivo; cited from earlier work
MTP [4] = target: MTP (Homo sapiens, UniProt P55157); details: cited from earlier work
MTP [5] = target: T1, MTP (Mus musculus, UniProt O08601); test: Determination of MTP activity in tissues (liver homogenates of treated mice); assay type: in vivo; details: chow fed C57/BL6J, IP tunicamycin, 4-24 hours
T1 construct: small pieces (0.1 g) of liver and ˜1-cm segments of proximal small intestine were homogenized; from tissue; host or cells: mouse liver (C57BL/6J; Reversa mice in some experiments); supernatant of ultracentrifuged homogenate
T1 sequence (O08601 22-894): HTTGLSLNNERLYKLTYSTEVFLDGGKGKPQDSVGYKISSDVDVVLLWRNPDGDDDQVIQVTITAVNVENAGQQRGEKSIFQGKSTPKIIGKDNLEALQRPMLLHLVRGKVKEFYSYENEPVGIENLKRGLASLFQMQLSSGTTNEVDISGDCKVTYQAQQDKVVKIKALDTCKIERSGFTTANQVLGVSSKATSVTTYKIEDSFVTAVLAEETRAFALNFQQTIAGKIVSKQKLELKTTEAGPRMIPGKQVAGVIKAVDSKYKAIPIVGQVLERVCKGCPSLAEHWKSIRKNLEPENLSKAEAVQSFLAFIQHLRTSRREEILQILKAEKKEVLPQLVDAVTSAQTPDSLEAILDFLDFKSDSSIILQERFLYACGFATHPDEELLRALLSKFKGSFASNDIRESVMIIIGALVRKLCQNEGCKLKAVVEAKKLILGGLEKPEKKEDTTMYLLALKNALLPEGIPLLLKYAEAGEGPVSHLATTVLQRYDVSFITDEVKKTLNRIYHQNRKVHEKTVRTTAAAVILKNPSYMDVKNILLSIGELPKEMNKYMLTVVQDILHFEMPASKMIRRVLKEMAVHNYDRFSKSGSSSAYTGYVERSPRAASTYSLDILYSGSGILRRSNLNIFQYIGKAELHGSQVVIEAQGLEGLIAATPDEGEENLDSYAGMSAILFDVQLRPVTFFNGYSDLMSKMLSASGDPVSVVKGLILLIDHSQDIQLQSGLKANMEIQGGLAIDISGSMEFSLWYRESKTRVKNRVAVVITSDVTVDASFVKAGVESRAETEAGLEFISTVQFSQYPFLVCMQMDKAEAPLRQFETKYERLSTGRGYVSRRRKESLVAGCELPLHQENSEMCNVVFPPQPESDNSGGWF
T1 sequence (P09103 21-509 partner limits assumed): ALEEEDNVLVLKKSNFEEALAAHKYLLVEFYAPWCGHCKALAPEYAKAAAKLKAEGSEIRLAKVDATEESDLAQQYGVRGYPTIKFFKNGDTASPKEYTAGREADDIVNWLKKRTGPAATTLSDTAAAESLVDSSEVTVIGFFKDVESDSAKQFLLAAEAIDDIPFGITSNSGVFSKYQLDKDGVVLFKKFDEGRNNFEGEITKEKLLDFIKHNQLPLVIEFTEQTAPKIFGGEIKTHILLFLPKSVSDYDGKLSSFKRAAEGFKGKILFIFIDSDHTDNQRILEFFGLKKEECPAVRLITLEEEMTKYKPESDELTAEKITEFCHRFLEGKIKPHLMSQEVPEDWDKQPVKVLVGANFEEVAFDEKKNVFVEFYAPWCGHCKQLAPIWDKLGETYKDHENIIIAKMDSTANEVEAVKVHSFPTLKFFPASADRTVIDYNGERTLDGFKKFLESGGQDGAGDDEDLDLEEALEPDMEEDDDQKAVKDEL
Procedure: After extensive washes with ice-cold PBS, small pieces (0.1 g) of liver and ˜1-cm segments of proximal small intestine were homogenized with 1 ml of ice-cold 1 mM Tris-HCl, pH 7.6, 1 mM EGTA, and 1 mM MgCl2 buffer in a glass homogenizer. The homogenates were centrifuged (SW55 Ti rotor, 50,000 rpm, 10° C., 1 h), and supernatants were used for MTP assay as described before (41; 42) using a kit (Chylos, Inc.).

C57Bl/6J mice = test: ER stress induction by tunicamycin in mice: plasma AST/ALT and lipids; assay type: in vivo
Procedure: FIG. 10. Effect of tunicamycin on plasma ALT/AST levels. W iid type mice were injected intraperitoneally with 1 mg/kg tunicamycin. Plasma were collected after 48 h and used to measure enzyme activities.
FIG. 17. Age matched wildtype C57/BL6J animals chow fed animals were injected via IP with either PBS or Tunicamycin. Animals were sacrificed at 4, 8, 12 and 24 hours. Plasma and livers were collected and mRNA extracted from liver samples.
To determine whether ER stress itself would increase plasma AST/ALT, C57Bl/6J mice were injected with tunicamycin (1 mg/kg) as described before. Plasma AST/ALT levels were measured after 36 h (FIG. 10). […] We will be measuring cellular lipid to determine whether tunicamycin affects hepatic lipid levels as well as mRNA and protein levels of different candidate genes involved in ER stress pathway.
as §1

[6] = chow fed C57/BL6J, IP, 4-24 hours

Chain of MTP (Homo sapiens, UniProt P55157) (P55157 19-894, species assumed): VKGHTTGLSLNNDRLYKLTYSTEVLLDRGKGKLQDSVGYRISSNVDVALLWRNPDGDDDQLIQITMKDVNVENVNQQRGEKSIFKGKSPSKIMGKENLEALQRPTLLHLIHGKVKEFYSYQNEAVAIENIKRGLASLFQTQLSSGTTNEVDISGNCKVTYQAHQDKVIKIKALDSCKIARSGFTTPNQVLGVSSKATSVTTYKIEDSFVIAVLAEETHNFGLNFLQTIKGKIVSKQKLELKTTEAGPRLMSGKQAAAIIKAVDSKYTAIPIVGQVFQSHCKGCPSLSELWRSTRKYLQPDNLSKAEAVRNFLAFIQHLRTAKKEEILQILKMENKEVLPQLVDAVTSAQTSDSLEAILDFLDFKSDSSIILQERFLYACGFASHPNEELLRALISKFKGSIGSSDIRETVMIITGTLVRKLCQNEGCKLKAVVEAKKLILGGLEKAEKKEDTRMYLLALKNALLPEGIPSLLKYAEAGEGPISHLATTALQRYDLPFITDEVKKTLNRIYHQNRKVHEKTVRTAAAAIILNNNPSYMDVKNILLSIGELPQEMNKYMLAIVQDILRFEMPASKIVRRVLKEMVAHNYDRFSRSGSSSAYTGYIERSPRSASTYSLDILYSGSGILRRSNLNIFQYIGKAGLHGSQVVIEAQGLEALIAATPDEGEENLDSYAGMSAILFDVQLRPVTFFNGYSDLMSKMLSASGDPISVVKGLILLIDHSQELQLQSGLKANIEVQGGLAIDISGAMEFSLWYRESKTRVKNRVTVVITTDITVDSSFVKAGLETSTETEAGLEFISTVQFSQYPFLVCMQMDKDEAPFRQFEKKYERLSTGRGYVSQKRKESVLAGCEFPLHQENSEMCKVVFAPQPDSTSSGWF
Chain of MTP (Homo sapiens, UniProt P55157) (P07237 18-508 partner, species assumed): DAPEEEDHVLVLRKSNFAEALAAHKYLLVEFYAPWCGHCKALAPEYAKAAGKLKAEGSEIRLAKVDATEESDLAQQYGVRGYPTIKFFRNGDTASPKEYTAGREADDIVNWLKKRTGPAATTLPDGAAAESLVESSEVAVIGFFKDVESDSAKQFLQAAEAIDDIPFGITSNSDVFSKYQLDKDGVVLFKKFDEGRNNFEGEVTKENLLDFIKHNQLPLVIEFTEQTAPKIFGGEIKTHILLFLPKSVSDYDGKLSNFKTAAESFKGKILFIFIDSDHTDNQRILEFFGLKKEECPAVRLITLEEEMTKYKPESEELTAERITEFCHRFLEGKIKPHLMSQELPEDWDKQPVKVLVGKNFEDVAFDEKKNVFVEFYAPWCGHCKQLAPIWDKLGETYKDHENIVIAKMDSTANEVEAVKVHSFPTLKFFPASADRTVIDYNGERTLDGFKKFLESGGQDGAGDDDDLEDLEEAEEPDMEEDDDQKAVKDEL

CCOC(=O)C(COC(=O)Cc1ccc(NC(=O)c2ccccc2-c2ccc(C(F)(F)F)cc2)c(C(=O)N(C)C)c1)(C(=O)OCC)c1ccccc1 [JTT-130]
hepatic triglyceride (guinea pigs): without increasing | plasma triglyceride and LDL cholesterol (guinea pigs): lower

O=C(O)CCCc1ccccc1 [PBA, 4-phenylbutyric acid]
mRNA levels of ER stress markers vs MTPi treated animals ([1]; PBA with MTPi): significantly lower | hepatic triglycerides and free cholesterol (hepatic lipids) ([2]; MTPi ± PBA one week): did not reduce | MTP activity, hepatic and plasma lipids ([2]; PBA 1 g/kg/day alone or co-administered with MTP inhibitor, one week): no effect | rises in plasma AST/ALT after MTP inhibition ([2]; PBA 1 g/kg/day with MTP inhibitor, one week): spared increases

COc1cccc(C(=O)Nc2ccc3c(c2)CCN(C(=O)Oc2ccccc2)C3)c1-c1ccc(C(F)(F)F)cc1 [SLx-4090]
plasma lipids [3]: lower

O=C1c2c(O)cc(O)cc2OC(c2ccc(O)c(O)c2)C1O (stereo not shown) [Taxifolin]
cellular lipids (MTP [4]): without increasing | triglyceride synthesis and MTP activity (MTP [4]): inhibits

tunicamycin
hepatic MTP activity (MTP [5]): no effect | XBP-1 splicing assay ([1]; tunicamycin IP): revealed the spliced form of XBP-1 | mRNA expression of ER stress markers Bip, Ire1α and CHOP ([1]; tunicamycin IP time course): elevations | Plasma AST/ALT levels (C57Bl/6J mice; 1 mg/kg injected, measured after 36 h): significantly enhanced | plasma AST/ALT vs PBS injected animals (C57Bl/6J mice; 24 hours after injection): still significantly elevated | increase of plasma AST/ALT (C57Bl/6J mice; acute induction of ER stress): 2.5 fold | time of peak plasma AST/ALT levels after injection (C57Bl/6J mice; chow fed C57/BL6J, IP): 8 h | hepatic lipids (C57Bl/6J mice; [6]): increased | plasma cholesterol and triglycerides (C57Bl/6J mice; [6]): lowered | plasma transaminases (C57Bl/6J mice; chow fed C57/BL6J, IP, vs PBS): higher

Source: patent US8455523B2, “Compositions and methods for treating hyperlipidemias” (The Research Foundation of State University of New York, priority 2010, dated 2013)
